According to patent publication US20250195521A1 (Revolution Medicines, Inc., priority 2020, published 2025):

Assays:
[1] = test system: K-Ras G12C (NCI-H358 cells); assay: Potency assay: pERK in NCI-H358 cells; assay type: cell-based, human; conditions: Homo sapiens; NCI-H358 cells, 4 hours; read-out: pERK EC50 (H358 KRAS G12C)
Method in brief: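 Cells plated the day before were exposed for 4 h at 37° C, 5% CO2 to a 10-point, 3-fold DMSO dilution series (10 mM top stock), in duplicate. Phospho-ERK was read by AlphaLISA SureFire Ultra or by In-Cell Western with DRAQ5 DNA stain, and IC50 came from a 4-parameter sigmoidal fit.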

[2] = test system: Capan-1 cells (K-Ras G12V); assay: CellTiter-Glo cell viability, Capan-1; assay type: cell-based, human; conditions: Homo sapiens, CAPAN-1, 120 h, K-Ras G12V, 5-day treatment; read-out: Capan-1 Cell Viability IC50
Method in brief: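 Viability is read as luminescence after five days of compound exposure, with plates first equilibrated to room temperature for roughly 30 minutes. Each signal is expressed as a percentage of the mean DMSO control, and curves are fitted by four-parameter logistic regression.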

KRAS WT = KRAS WT (Homo sapiens (Human), UniProt P01116+P62937); assay: Ras-Raf disruption/FRET/MOA assay (BRAF RBD, Cyclophilin A); assay type: biochemical; conditions: read-out: KRAS WT FRET data IC50
Chain of KRAS WT (P01116 other isoform, or with tags, fused parts or gaps): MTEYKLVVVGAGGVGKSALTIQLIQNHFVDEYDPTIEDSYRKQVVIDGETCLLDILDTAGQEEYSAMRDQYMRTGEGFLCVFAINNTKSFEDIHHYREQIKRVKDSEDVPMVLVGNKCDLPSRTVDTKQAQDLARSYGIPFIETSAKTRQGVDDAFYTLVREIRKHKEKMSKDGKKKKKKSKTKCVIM
Chain of KRAS WT (P62937 whole entry): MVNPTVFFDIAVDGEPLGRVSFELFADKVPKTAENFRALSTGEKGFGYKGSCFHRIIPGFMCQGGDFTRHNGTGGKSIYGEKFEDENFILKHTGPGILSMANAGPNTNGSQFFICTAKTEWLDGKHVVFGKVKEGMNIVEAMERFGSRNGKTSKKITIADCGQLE
Method: (§1) Compound is present in plate wells as a 10-point 3-fold dilution series starting at a final concentration of 30 μM. After incubation at 25° C. for 3 hours, a mixture of Anti-His Eu—W1024 and anti-GST allophycocyanin is then added to assay sample wells at final concentrations of 10 nM and 50 nM, respectively, and the reaction incubated for an additional 1.5 hours. […] Compounds that facilitate disruption of a Ras: RAF complex are identified as those eliciting a decrease in the TR-FRET ratio relative to DMSO control wells.
(§2) Disruption of B-Raf Ras-Binding Domain (BRAF^RBD) Interaction with K-Ras by Compounds of the Invention (Also Called a FRET Assay or an MOA Assay)
(§3) Note—The following protocol describes a procedure for monitoring disruption of K-Ras G12C (GMP-PNP) binding to BRAF^RBD by a compound of the invention. This protocol may also be executed substituting other Ras proteins or nucleotides.
(§4) The purpose of this biochemical assay was to measure the ability of test compounds to facilitate ternary complex formation between a nucleotide-loaded K-Ras isoform and Cyclophilin A; the resulting ternary complex disrupts binding to a BRAF^RBD construct, inhibiting K-Ras signaling through a RAF effector. Data is reported as IC50 values.
(§5) In assay buffer containing 25 mM HEPES pH 7.3, 0.002% Tween20, 0.1% BSA, 100 mM NaCl and 5 mM MgCl2, tagless Cyclophilin A, His6-K-Ras-GMPPNP, and GST-BRAF^RBD were combined in a 384-well assay plate at final concentrations of 25 μM, 12.5 nM and 50 nM, respectively. Compound was present in plate wells as a 10-point 3-fold dilution series starting at a final concentration of 30 μM. After incubation at 25° C. for 3 hours, a mixture of Anti-His Eu—W1024 and anti-GST allophycocyanin was then added to assay sample wells at final concentrations of 10 nM and 50 nM, respectively, and the reaction incubated for an additional 1.5 hours. […] Compounds that facilitate disruption of a K-Ras: RAF complex were identified as those eliciting a decrease in the TR-FRET ratio relative to DMSO control wells.

KRAS G12S = KRAS G12S (Homo sapiens (Human), UniProt P01116+P62937, G12S); assay: as above; assay type: biochemical; conditions: read-out: KRAS G12S FRET IC50
Chain of KRAS G12S (P01116 other isoform, or with tags, fused parts or gaps G12S): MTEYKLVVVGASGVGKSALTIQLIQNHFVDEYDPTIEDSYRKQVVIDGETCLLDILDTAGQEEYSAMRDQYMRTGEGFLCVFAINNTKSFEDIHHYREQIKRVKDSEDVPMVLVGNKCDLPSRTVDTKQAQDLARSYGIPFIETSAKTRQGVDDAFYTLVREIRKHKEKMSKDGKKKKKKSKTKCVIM
Chain of KRAS G12S (P62937 whole entry): as the sequence (P62937 whole entry) above
Method: as §1, §2, §3, §4, §5

KRAS G12V = KRAS G12V (Homo sapiens (Human), UniProt P01116+P62937, G12V); assay: as above; assay type: biochemical; conditions: read-out: KRAS G12V FRET IC50
Chain of KRAS G12V (P01116 other isoform, or with tags, fused parts or gaps G12V): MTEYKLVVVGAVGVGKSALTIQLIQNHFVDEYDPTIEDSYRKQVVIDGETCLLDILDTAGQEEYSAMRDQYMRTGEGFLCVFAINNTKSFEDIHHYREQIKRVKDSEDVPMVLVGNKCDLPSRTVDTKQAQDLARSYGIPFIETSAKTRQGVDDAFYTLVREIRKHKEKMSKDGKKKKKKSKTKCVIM
Chain of KRAS G12V (P62937 whole entry): as the sequence (P62937 whole entry) above
Method: as §1, §2, §3, §4, §5

KRAS G12D = KRAS G12D (Homo sapiens (Human), UniProt P01116+P62937, G12D); assay: as above; assay type: biochemical; conditions: read-out: KRAS G12D FRET IC50
Chain of KRAS G12D (P01116 other isoform, or with tags, fused parts or gaps G12D): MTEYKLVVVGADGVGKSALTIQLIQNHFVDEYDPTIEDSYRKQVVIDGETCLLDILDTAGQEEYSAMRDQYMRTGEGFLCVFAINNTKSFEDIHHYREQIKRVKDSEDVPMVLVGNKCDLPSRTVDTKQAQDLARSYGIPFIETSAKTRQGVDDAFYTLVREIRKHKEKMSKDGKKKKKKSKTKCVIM
Chain of KRAS G12D (P62937 whole entry): as the sequence (P62937 whole entry) above
Method: as §1, §2, §3, §4, §5

NRAS G12C = NRAS G12C (Homo sapiens (Human), UniProt P01111+P62937, G12C); assay: as above; assay type: biochemical; conditions: read-out: NRAS G12C FRET data IC50
Chain of NRAS G12C (P01111 whole entry G12C): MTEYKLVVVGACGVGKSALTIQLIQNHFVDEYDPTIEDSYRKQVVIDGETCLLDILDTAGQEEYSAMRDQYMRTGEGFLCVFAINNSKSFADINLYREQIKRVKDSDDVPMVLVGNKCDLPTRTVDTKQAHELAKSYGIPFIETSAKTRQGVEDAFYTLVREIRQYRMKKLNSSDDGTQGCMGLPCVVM
Chain of NRAS G12C (P62937 whole entry): as the sequence (P62937 whole entry) above
Method: as §1, §2, §3, §4, §5

KRAS G12C = KRAS G12C (Homo sapiens (Human), UniProt P01116+P62937, G12C); assay: as above; assay type: biochemical; conditions: read-out: KRAS G12C FRET IC50
Chain of KRAS G12C (P01116-2 other isoform, or with tags, fused parts or gaps G12C): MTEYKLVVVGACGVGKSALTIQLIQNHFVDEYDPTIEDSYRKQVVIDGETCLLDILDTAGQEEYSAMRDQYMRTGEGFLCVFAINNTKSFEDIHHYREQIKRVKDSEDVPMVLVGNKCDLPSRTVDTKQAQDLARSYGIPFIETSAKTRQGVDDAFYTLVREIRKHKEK
Chain of KRAS G12C (P62937 whole entry): as the sequence (P62937 whole entry) above
Method: as §1, §2, §3, §4, §5

KRAS G13C = KRAS G13C (Homo sapiens (Human), UniProt P01116+P62937, G13C); assay: as above; assay type: biochemical; conditions: read-out: KRAS G13C FRET IC50
Chain of KRAS G13C (P01116 other isoform, or with tags, fused parts or gaps G13C): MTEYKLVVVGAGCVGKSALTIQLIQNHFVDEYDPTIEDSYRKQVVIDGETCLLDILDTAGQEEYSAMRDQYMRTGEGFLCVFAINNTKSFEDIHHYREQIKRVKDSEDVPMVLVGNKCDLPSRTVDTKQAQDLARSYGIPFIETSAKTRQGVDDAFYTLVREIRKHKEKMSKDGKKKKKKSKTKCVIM
Chain of KRAS G13C (P62937 whole entry): as the sequence (P62937 whole entry) above
Method: as §1, §2, §3, §4, §5

KRAS G13D = KRAS G13D (Homo sapiens (Human), UniProt P01116+P62937, G13D); assay: as above; assay type: biochemical; conditions: read-out: KRAS G13D FRET data IC50
Chain of KRAS G13D (P01116 other isoform, or with tags, fused parts or gaps G13D): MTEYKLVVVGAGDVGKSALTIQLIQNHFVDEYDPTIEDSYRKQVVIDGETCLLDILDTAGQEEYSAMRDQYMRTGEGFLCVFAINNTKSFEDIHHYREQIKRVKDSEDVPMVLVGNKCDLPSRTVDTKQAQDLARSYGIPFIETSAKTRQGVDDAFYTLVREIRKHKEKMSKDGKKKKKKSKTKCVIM
Chain of KRAS G13D (P62937 whole entry): as the sequence (P62937 whole entry) above
Method: as §1, §2, §3, §4, §5

Row | Compound | EC50 [1] [nM] | IC50 [2] [nM] | IC50 (KRAS WT) [nM] | IC50 (KRAS G12S) [nM] | IC50 (KRAS G12V) [nM] | IC50 (KRAS G12D) [nM] | IC50 (NRAS G12C) [nM] | IC50 (KRAS G12C) [nM] | IC50 (KRAS G13C) [nM] | IC50 (KRAS G13D) [nM]
1 | CCn1c(-c2cnccc2COC)c2c3cc(ccc31)-c1cc(O)cc(c1)C[C@H](NC(=O)[C@H](C(C)C)N(C)c1nccs1)C(=O)N1CCC[C@H](N1)C(=O)OCC(C)(C)C2 [Compound A86] | < 5000 | > 10000 | 1000 to 10000 | 1000 to 10000 | 1000 to 10000 | > 10000 | 1000 to 10000 | 100 to 1000 | 100 to 1000 | 1000 to 10000
2 | CCn1c(-c2cnccc2COC)c2c3cc(ccc31)-c1cc(O)cc(c1)C[C@H](NC(=O)[C@H](C(C)C)N(C)C(=O)C1CN(C)C1)C(=O)N1CCC[C@H](N1)C(=O)OCC(C)(C)C2 [Compound A88] | < 5000 | > 10000 | 100 to 1000 | 100 to 1000 | 1000 to 10000 | 100 to 1000 | 100 to 1000 | 100 to 1000 | 10 to 100 | 10 to 100
3 | CCn1c(-c2cccnc2[C@H](C)OC)c2c3cc(ccc31)-c1cccc(c1)C[C@H](NC(=O)[C@H](C(C)C)N(C)C(=O)[C@H]1CCN(C)C1)C(=O)N1CCC[C@H](N1)C(=O)OCC(C)(C)C2 [Compound A107] | < 5000 | 1000 to 10000 | 1000 to 10000 | 1000 to 10000 | > 10000 | 1000 to 10000 | 1000 to 10000 | 1000 to 10000 | 100 to 1000 | 1000 to 10000
4 | CCn1c(-c2cccnc2[C@H](C)OC)c2c3cc(ccc31)-c1cc(O)cc(c1)C[C@H](NC(=O)[C@@H]1[C@H](C)CCN1C(C)=O)C(=O)N1CCC[C@H](N1)C(=O)OCC(C)(C)C2 [Compound A144] | < 5000 | 1000 to 10000 | 100 to 1000 | 1000 to 10000 | 1000 to 10000 | 1000 to 10000 | 1000 to 10000 | 100 to 1000 | 100 to 1000 | 1000 to 10000
5 | CCn1c(-c2cccnc2[C@H](C)OC)c2c3cc(ccc31)-c1cc(O)cc(c1)C[C@H](NC(=O)[C@H](C(C)C)N(C)C(=O)[C@H]1CC1(C)C)C(=O)N1CCC[C@H](N1)C(=O)OCC(C)(C)C2 [Compound A158] | < 5000 | 1000 to 10000 | 100 to 1000 | 100 to 1000 | 100 to 1000 | 100 to 1000 | 100 to 1000 | 100 to 1000 | 100 to 1000 | 100 to 1000
6 | CCn1c(-c2cccnc2[C@H](C)OC)c2c3cc(ccc31)-c1cc(O)cc(c1)C[C@H](NC(=O)[C@H]1C[C@@H]1C)C(=O)N1CCC[C@H](N1)C(=O)OCC(C)(C)C2 [Compound A182] | < 5000 | 1000 to 10000 | 1000 to 10000 | 1000 to 10000 | 1000 to 10000 | > 10000 | 1000 to 10000 | 100 to 1000 | 100 to 1000 | 1000 to 10000
7 | CCn1c(-c2cccnc2[C@H](C)OC)c2c3cc(ccc31)-c1csc(n1)C[C@H](NC(=O)[C@H](C(C)C)N(C)C(=O)N1[C@H](C)COC[C@H]1C)C(=O)N1CCC[C@H](N1)C(=O)OCC(C)(C)C2 [Compound A275] | < 5000 | 100 to 1000 | 10 to 100 | 10 to 100 | 10 to 100 | 100 to 1000 | 10 to 100 | 10 to 100 | 10 to 100 | 10 to 100
8 | CCn1c(-c2cccnc2[C@H](C)OC)c2c3cc(ccc31)-c1csc(n1)C[C@H](NC(=O)[C@H](C(C)C)N(C)C(=O)N1CCN3CCOCC3C1)C(=O)N1CCC[C@H](N1)C(=O)OCC(C)(C)C2 (some centres unmarked) [Compound A296] | < 5000 | 10 to 100 | 100 to 1000 | 100 to 1000 | 100 to 1000 | 1000 to 10000 | 100 to 1000 | 100 to 1000 | 100 to 1000 | 1000 to 10000
9 | CCn1c(-c2cccnc2[C@H](C)OC)c2c3cc(ccc31)-c1cc(O)cc(c1)C[C@H](NC(=O)[C@H](C(C)C)N(C)C(=O)[C@@H]1CCN(C(=O)OC)C1)C(=O)N1CCC[C@H](N1)C(=O)OCC(C)(C)C2 [Compound A365] | < 5000 | 10 to 100 | 10 to 100 | 10 to 100 | 10 to 100 | 10 to 100 | 10 to 100 | 10 to 100 | 10 to 100 | 10 to 100
10 | CCn1c(-c2cccnc2[C@H](C)OC)c2c3cc(ccc31)-c1cc(O)cc(c1)C[C@H](NC(=O)[C@H](C(C)C)N(C)C(=O)[C@H]1CCN(C(=O)[C@@H]3CCCN3)C1)C(=O)N1CCC[C@H](N1)C(=O)OCC(C)(C)C2 [Compound A370] | < 5000 | 1000 to 10000 | 10 to 100 | 10 to 100 | 10 to 100 | 10 to 100 | 10 to 100 | 10 to 100 | 10 to 100 | 10 to 100
11 | CCn1c(-c2cccnc2[C@H](C)OC)c2c3cc(ccc31)-c1cc(O)cc(c1)C[C@H](NC(=O)[C@H](C(C)C)N(C)C(=O)[C@H]1CCN(C(=O)[C@H]3CCCN3C)C1)C(=O)N1CCC[C@H](N1)C(=O)OCC(C)(C)C2 [Compound A371] | < 5000 | 1000 to 10000 | 10 to 100 | 10 to 100 | 10 to 100 | 10 to 100 | 10 to 100 | 10 to 100 | 10 to 100 | 10 to 100
12 | CCn1c(-c2cccnc2[C@H](C)OC)c2c3cc(ccc31)-c1cc(O)cc(c1)C[C@H](NC(=O)[C@H](C(C)C)N(C)C(=O)[C@H]1CCN(C(=O)[C@]3(C)CCCN3)C1)C(=O)N1CCC[C@H](N1)C(=O)OCC(C)(C)C2 [Compound A380] | < 5000 | 1000 to 10000 | 10 to 100 | 10 to 100 | 10 to 100 | 10 to 100 | 10 to 100 | 10 to 100 | 10 to 100 | 10 to 100
13 | CCn1c(-c2cccnc2[C@H](C)OC)c2c3cc(ccc31)-c1cc(O)cc(c1)C[C@H](NC(=O)[C@H](C(C)C)N(C)C(=O)[C@H]1CCCC[C@@H]1N)C(=O)N1CCC[C@H](N1)C(=O)OCC(C)(C)C2 [Compound A394] | < 5000 | 1000 to 10000 | 100 to 1000 | 100 to 1000 | 100 to 1000 | 100 to 1000 | 100 to 1000 | 100 to 1000 | 10 to 100 | 100 to 1000
14 | CCn1c(-c2cccnc2[C@H](C)OC)c2c3cc(ccc31)-c1cc(O)cc(c1)C[C@H](NC(=O)[C@H](C(C)C)N(C)C(=O)[C@H]1CCCC[C@H]1N)C(=O)N1CCC[C@H](N1)C(=O)OCC(C)(C)C2 [Compound A419] | < 5000 | 100 to 1000 | 10 to 100 | 10 to 100 | 100 to 1000 | 10 to 100 | 10 to 100 | 10 to 100 | 10 to 100 | 10 to 100
